Each compound was assayed against Sodium channel protein type 5 subunit alpha (Homo sapiens, UniProt Q14524) (assay: Nav 1.5 In Vitro PX Assay: 293 cells stably transfected with human Nav 1.5 were recorded in whole cell voltage clamp mode with the PatchXpress automated electrophysiology system according the manufacturer's specifications (Molecular Devices, LLC, Sunnyvale, Calif.). Cells were held at a holding potential of −50 mV to inactivate sodium channels. To elicit sodium currents the voltage was changed to …).
Sequence of Sodium channel protein type 5 subunit alpha (Q14524 whole entry): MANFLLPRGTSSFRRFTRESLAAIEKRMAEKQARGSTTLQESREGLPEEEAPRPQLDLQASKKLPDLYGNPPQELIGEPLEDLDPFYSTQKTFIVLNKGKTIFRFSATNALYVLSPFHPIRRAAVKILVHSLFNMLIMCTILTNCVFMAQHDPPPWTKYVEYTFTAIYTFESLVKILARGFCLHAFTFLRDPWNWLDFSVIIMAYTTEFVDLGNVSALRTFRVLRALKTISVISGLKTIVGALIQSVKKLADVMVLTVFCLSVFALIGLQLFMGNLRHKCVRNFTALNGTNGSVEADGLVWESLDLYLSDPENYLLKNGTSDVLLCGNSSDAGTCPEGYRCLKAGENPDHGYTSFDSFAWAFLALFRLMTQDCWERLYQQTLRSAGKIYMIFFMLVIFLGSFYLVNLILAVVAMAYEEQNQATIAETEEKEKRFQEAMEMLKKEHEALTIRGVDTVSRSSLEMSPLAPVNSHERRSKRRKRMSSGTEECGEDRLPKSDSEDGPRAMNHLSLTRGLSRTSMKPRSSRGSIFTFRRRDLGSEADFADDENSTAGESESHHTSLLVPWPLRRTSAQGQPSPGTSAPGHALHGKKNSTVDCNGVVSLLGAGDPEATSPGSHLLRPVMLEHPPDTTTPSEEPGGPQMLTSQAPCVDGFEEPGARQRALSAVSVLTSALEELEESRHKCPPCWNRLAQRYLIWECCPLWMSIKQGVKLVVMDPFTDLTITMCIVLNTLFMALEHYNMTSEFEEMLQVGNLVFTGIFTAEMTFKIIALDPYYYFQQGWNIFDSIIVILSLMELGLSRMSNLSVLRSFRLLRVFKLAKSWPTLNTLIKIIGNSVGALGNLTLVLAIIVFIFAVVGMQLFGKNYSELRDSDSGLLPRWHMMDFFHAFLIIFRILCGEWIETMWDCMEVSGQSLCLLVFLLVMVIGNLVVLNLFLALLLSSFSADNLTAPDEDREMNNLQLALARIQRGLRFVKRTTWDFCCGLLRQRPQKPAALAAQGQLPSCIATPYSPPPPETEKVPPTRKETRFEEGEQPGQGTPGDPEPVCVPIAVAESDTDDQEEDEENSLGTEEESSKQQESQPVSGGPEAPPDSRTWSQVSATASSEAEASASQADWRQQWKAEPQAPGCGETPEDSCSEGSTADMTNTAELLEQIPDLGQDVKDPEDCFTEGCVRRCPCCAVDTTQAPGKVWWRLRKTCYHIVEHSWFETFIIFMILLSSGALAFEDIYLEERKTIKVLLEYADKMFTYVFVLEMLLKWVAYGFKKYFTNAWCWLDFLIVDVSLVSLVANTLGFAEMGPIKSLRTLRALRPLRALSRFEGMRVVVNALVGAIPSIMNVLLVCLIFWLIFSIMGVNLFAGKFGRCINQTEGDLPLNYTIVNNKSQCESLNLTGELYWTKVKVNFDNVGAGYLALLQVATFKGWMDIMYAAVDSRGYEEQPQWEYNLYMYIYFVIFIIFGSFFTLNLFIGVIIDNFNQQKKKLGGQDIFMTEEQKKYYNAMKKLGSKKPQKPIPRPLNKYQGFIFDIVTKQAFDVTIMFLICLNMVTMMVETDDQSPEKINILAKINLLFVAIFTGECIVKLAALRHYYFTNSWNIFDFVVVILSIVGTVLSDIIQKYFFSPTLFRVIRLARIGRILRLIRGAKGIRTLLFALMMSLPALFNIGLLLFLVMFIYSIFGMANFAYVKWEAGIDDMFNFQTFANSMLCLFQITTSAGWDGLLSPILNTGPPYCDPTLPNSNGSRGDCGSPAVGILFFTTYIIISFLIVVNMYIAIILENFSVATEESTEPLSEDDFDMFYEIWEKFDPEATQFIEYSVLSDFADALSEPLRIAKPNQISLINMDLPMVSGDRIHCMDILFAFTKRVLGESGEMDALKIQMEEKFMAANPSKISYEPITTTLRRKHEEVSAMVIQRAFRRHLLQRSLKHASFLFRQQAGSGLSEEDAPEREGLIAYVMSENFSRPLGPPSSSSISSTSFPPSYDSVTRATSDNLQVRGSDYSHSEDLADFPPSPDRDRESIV
Description: Nav 1.5 In Vitro PX Assay: 293 cells stably transfected with human Nav 1.5 were recorded in whole cell voltage clamp mode with the PatchXpress automated electrophysiology system according the manufacturer's specifications (Molecular Devices, LLC, Sunnyvale, Calif.). Cells were held at a holding potential of −50 mV to inactivate sodium channels. To elicit sodium currents the voltage was changed to −120 mV to recover a portion of the channels, followed by delivery of test pulses of 20 msec duration to 0 mV, at 0.1 Hz. A single concentration of test compound was applied to cells for a duration of 5 minutes. Peak sodium current was measured at the end of the compound addition period to determine percent inhibition. A minimum of two cells were tested per concentration.

SMILES	IC50 [nM]
Cc1cc(C(=O)NS(=O)(=O)C2CCC2)c(F)cc1-c1cnc(OC2CCC2)c(Cl)c1	> 4900

These compounds were tested against Sodium channel protein type 9 subunit alpha (Homo sapiens, UniProt Q15858) (assay: Nav 1.7 In Vitro Patch Express (PX) Assay: HEK 293 cells stably transfected with human Nav1.7 were recorded in whole cell voltage clamp mode with the PatchXpress automated electrophysiology system (Molecular Devices, LLC, Sunnyvale, Calif.). Compound effects were measured on a partially inactivated state of the sodium channel. Cells were clamped to a holding potential yielding 20 to 50% inactivation. To elicit sodium current, channels were activated by pulsing to −10 mV for 20 msec. This voltage protocol was repeated at a rate of 0.1 Hz throughout the experiment. A single concentration of test compound was applied to cells for a duration of 3 minutes. Peak sodium current was measured at the end of the compound addition period to determine percent inhibition. Three to five cells were tested per concentration, and IC50 curves were fitted to percent inhibition as a function of concentration.).
Sequence of Sodium channel protein type 9 subunit alpha (Q15858 whole entry): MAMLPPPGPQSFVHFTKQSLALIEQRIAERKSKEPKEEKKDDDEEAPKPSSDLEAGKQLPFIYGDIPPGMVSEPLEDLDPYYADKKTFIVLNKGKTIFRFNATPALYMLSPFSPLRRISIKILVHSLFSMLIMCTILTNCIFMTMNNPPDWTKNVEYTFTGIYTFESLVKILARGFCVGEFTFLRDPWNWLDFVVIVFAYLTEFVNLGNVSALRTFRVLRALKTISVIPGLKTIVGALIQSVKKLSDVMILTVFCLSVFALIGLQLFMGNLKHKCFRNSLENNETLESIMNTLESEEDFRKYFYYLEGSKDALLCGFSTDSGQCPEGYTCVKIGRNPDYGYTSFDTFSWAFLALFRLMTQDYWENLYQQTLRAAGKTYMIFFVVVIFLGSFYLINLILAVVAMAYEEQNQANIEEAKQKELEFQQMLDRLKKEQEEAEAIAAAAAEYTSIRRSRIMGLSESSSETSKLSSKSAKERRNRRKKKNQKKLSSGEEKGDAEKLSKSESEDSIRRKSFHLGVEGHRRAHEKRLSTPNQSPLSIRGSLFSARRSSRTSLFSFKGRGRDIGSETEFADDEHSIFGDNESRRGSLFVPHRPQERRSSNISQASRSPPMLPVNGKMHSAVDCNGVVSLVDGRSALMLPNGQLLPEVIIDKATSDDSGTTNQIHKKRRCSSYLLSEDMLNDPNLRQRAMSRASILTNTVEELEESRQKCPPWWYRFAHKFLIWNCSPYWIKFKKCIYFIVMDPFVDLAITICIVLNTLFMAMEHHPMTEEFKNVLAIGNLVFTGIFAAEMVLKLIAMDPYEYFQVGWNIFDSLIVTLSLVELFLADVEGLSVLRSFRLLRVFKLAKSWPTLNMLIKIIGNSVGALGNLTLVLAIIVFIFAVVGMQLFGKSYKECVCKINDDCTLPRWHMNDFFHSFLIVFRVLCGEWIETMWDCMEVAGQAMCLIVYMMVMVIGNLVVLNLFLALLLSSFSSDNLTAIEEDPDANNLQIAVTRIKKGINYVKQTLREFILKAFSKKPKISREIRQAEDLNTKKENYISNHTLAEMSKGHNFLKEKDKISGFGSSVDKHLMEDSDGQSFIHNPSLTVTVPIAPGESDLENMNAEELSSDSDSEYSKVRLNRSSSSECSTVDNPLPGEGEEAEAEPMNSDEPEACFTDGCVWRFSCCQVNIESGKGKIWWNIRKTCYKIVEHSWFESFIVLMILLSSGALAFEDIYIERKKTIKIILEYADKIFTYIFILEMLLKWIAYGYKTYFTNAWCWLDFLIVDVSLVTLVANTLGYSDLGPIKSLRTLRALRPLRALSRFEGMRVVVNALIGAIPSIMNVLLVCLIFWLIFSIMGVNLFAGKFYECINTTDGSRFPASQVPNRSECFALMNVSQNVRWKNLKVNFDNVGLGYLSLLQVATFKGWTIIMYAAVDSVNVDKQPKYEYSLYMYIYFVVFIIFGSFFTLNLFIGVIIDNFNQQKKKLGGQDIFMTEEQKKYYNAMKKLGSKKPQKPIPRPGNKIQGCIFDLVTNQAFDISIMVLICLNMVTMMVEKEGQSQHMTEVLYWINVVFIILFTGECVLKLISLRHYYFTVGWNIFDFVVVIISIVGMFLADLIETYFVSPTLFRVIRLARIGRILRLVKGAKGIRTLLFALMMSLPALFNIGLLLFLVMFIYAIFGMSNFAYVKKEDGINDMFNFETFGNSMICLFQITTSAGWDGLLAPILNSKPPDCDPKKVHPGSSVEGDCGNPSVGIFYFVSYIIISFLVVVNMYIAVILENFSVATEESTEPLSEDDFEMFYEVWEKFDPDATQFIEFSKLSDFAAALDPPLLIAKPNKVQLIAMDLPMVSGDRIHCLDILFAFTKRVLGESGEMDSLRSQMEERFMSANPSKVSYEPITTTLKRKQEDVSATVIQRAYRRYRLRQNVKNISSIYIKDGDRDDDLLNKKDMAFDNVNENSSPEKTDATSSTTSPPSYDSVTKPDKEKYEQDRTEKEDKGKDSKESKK

IC50 [nM]	SMILES
17.2	COc1cc(C(=O)NS(C)(=O)=O)ccc1-c1cnc(Oc2c(Cl)ccc(Cl)c2C)c(C#N)c1
46.2	Cc1cc(C(=O)NS(C)(=O)=O)c(F)cc1-c1cnc(O[C@H](C)c2cc(Cl)ccc2Cl)c(Cl)c1
73.9	Cc1cc(C(=O)NS(=O)(=O)C2CCC2)c(F)cc1-c1cnc(OC2CCC2)c(Cl)c1
559	CC(C)COc1ncc(-c2cc(F)c(C(=O)NS(C)(=O)=O)cc2F)cc1Br
96.5	CS(=O)(=O)NC(=O)c1cc(F)c(-c2cnc(Oc3ccc(F)c4c3CCC4)c(Cl)c2)cc1F
